In patent US12653830B2, “Substituted imidazoquinoxaline compounds and uses thereof” (Impact Therapeutics (Shanghai), Inc, priority 2019, dated 2026):
Read-outs that look alike come from different tables or passages of the source.

Key:
ATM kinase = target: T1, ATM kinase (Homo sapiens, UniProt Q13315); assay: In vitro ATM kinase assay (Cisbio HTRF, p53 substrate); type: biochemical; conditions: 30 μM ATP; for inhibition at 0.0001 µM: Conc. 0.1 nM; for inhibition at 0.0001 µM / inhibition at 0.001 µM / inhibition at 0.01 µM: read-out: Inh % (inhibitory effect on ATM kinase activity); for inhibition at 0.001 µM: Conc. 1 nM; for inhibition at 0.01 µM: Conc. 10 nM
T1 construct: purchased Eurofins 14-933
Experimental: Determination of the Inhibitory Effect In Vitro of the Compound of Example 2 and its Analogues on ATM Using In Vitro ATM Kinase Assay
ATM enzymatic activity was measured using Cisbio's HTRF reagent in a 384-well plate (Greiner, #784075). […] The mixtures were centrifuged at 1000 rpm for 1 minute, and reacted in dark for 30 minutes at room temperature. Then, 5 μL of EDTA termination solution (250 mm) was added to terminate the reaction. After 5 μL of detection mixture (Anti-phospho-p53 (ser15)-K (Cisbio, #61P08KAE, 0.084 ng/μL) and Anti-GST-d2 (Cisbio, #61GSTDLA, 5.00 ng/μL)) was finally added to each well, the mixtures were cultured at room temperature over night, and the fluorescence values at 665 nm and 615 nm were measured on Envision 2104. The final concentration of each reagent of the experiment was as follows: 12.5 mM HEPES (pH8.0), 0.5% glycerol, 0.005% Brij-35, 0.625 mM DTT, 0.0125% BSA, 15 nM p53, 0.25 ng/μL ATM, 30 μM ATP, 2.5 mM Mg(AcO)2, 2.5 mM MnCl2, 62.5 mM EDTA, 0.021 ng/μL Anti-phospho-p53, 1.25 ng/μL Anti-GST-d2.
Relative fluorescence ratio was calculated: Ratio665 nm/615 nm−Ratiobackground, and inhibition rate %=(1−(relative fluorescence ratio of test compound well−relative fluorescence ratio of positive control well)/(relative fluorescence ratio of negative control well−relative fluorescence ratio of positive control well))×100 was calculated. Data were analyzed using GraphPad Prism6.0 and fitted using the curve equation: Y=Bottom+(Top−Bottom)/(1+10^((Log IC50−X)*HillSlope)), and IC50 values were calculated.

[1] = tested on: human breast cancer cell MDA-MB-468; assay: MTT proliferation assay, MDA-MB-468; type: cell-based; conditions: Homo sapiens, MDA-MB-468, 168 h, 7 days, single agent, read-out: IC50, inhibition of proliferation of MDA-MB-468
Experimental: Determination of the Inhibitory Effect of the Compound of Example 2 and its Analogues on the Proliferation of Human Breast Cancer Cell MDA-MB-468 Using MTT Assay
The human breast cancer cells MDA-MB-468 were cultured in RPMI 1640 medium with 10% FBS and used at 90% confluence. The MDA-IVB-468 cells were digested with trypsinase and centrifuged at 800 rpm for 5 minutes. The supernatant was discarded and the cell pellets were resuspended with fresh medium and counted. Cells were seeded to 96-well cell culture plates with appropriate cell density and incubated overnight at 37° C., 5% CO2. […] 5 μL of solutions of each concentration was added to 120 μL of medium (diluted by 25 times) and mixed by shaking. The culture medium of cells cultured overnight was discarded and replaced with 195 μL/well of fresh medium (RPMI 1640+5% FBS) and 5 μL/well of diluted medium containing the test compound of corresponding concentrations (the final concentration of DMSO was 1%), and the culture plate was then returned to 5% CO2 incubator at 37° C. for 7 days (on the fourth day, dressing was changed once and culture was continued). On the day of experiment, culture medium was discarded and replaced with 100 μL/well of fresh serum-free DMEM medium containing MTT (0.5 mg/mL), and the culture was continued. After 4 hours, medium was discarded and replaced with 100 μL/well of DMSO, the plates were shaken for 10 minutes in darkness and the absorbance was measured at the wavelengths of 552 and 693 nm using a multi-function plate reader. Graph Pad Prism 6.0 was used to analyze the data. The inhibitory effects of compounds on cell proliferation were plotted based on cell viability vs. the logarithm of compound concentration. Cell viability %=(ODcompound−ODbackground)/(ODDMSO−ODbackground)×100.
Table 4 summarizes the inhibitory effect data (IC50) of some compounds on the proliferation of human breast cancer cell MDA-MB-468.

[2] = tested on: human colon cancer cell SW620; assay: MTT proliferation assay in combination with CPT-11, SW620; type: cell-based; conditions: medium containing 205 nM CPT-11, 5 days, read-out: IC50, inhibition of proliferation of SW620 combined with CPT-11
Experimental: Determination of the Inhibitory Effect of the Compound of Example 2 and its Analogues in Combination with CPT-11 on the Proliferation of Human Colon Cancer Cell SW620 Using MTT Assay
The human colon cancer cells SW620 were cultured in RPMI 1640 medium with 10% FBS and used at about 90% confluence for experiments. The SW620 cells were digested with trypsinase and centrifuged at 800 rpm for 5 minutes. The supernatant was discarded and the cell pellets were resuspended with fresh medium (RPMI 1640+10% FBS). The cells were seeded into 96-well cell culture plates with appropriate cell density and incubated at 37° C. overnight in a 5% CO2 incubator. […] The first concentration was 1 μM or 0.333 μM, the last concentration was DMSO negative control (0 μM). 5 μL of solutions of each concentration was added to 120 μL of medium (a 25 times dilution) and mixed by shaking. The cells were cultured overnight and the culture medium was replaced with 195 μL/well of fresh medium containing 205 nM CPT-11 and 5 μL/well of medium containing the test compound (the final concentration of DMSO was 1%). The culture plates were returned to incubator and cultured at 37° C., 5% CO2 for 5 days. At the day of experiment, medium was discarded and replaced with 100 μL of fresh serum-free DMEM medium containing MTT (0.5 mg/mL), and the culture was continued. 4 hours later, the medium was discarded and replaced with 100 μL/well of DMSO, the plate was shaken for 10 minutes in dark and the absorbance was measured at the wavelengths of 552 and 690 nm using a multi-function plate reader. Data were analyzed by Graph Pad Prism 6.0. The inhibitory effects of compounds on cell proliferation were plotted based on cell viability vs. the logarithm of compound concentration. Cell viability %=(ODcompound−ODbackground)/(ODDMSO−ODbackground)×100.
Table 3 summarizes the inhibitory effect data (IC50) of some compounds combined with CPT-11 on the proliferation of human colon cancer cell SW620.

T1 sequence (Q13315 whole entry): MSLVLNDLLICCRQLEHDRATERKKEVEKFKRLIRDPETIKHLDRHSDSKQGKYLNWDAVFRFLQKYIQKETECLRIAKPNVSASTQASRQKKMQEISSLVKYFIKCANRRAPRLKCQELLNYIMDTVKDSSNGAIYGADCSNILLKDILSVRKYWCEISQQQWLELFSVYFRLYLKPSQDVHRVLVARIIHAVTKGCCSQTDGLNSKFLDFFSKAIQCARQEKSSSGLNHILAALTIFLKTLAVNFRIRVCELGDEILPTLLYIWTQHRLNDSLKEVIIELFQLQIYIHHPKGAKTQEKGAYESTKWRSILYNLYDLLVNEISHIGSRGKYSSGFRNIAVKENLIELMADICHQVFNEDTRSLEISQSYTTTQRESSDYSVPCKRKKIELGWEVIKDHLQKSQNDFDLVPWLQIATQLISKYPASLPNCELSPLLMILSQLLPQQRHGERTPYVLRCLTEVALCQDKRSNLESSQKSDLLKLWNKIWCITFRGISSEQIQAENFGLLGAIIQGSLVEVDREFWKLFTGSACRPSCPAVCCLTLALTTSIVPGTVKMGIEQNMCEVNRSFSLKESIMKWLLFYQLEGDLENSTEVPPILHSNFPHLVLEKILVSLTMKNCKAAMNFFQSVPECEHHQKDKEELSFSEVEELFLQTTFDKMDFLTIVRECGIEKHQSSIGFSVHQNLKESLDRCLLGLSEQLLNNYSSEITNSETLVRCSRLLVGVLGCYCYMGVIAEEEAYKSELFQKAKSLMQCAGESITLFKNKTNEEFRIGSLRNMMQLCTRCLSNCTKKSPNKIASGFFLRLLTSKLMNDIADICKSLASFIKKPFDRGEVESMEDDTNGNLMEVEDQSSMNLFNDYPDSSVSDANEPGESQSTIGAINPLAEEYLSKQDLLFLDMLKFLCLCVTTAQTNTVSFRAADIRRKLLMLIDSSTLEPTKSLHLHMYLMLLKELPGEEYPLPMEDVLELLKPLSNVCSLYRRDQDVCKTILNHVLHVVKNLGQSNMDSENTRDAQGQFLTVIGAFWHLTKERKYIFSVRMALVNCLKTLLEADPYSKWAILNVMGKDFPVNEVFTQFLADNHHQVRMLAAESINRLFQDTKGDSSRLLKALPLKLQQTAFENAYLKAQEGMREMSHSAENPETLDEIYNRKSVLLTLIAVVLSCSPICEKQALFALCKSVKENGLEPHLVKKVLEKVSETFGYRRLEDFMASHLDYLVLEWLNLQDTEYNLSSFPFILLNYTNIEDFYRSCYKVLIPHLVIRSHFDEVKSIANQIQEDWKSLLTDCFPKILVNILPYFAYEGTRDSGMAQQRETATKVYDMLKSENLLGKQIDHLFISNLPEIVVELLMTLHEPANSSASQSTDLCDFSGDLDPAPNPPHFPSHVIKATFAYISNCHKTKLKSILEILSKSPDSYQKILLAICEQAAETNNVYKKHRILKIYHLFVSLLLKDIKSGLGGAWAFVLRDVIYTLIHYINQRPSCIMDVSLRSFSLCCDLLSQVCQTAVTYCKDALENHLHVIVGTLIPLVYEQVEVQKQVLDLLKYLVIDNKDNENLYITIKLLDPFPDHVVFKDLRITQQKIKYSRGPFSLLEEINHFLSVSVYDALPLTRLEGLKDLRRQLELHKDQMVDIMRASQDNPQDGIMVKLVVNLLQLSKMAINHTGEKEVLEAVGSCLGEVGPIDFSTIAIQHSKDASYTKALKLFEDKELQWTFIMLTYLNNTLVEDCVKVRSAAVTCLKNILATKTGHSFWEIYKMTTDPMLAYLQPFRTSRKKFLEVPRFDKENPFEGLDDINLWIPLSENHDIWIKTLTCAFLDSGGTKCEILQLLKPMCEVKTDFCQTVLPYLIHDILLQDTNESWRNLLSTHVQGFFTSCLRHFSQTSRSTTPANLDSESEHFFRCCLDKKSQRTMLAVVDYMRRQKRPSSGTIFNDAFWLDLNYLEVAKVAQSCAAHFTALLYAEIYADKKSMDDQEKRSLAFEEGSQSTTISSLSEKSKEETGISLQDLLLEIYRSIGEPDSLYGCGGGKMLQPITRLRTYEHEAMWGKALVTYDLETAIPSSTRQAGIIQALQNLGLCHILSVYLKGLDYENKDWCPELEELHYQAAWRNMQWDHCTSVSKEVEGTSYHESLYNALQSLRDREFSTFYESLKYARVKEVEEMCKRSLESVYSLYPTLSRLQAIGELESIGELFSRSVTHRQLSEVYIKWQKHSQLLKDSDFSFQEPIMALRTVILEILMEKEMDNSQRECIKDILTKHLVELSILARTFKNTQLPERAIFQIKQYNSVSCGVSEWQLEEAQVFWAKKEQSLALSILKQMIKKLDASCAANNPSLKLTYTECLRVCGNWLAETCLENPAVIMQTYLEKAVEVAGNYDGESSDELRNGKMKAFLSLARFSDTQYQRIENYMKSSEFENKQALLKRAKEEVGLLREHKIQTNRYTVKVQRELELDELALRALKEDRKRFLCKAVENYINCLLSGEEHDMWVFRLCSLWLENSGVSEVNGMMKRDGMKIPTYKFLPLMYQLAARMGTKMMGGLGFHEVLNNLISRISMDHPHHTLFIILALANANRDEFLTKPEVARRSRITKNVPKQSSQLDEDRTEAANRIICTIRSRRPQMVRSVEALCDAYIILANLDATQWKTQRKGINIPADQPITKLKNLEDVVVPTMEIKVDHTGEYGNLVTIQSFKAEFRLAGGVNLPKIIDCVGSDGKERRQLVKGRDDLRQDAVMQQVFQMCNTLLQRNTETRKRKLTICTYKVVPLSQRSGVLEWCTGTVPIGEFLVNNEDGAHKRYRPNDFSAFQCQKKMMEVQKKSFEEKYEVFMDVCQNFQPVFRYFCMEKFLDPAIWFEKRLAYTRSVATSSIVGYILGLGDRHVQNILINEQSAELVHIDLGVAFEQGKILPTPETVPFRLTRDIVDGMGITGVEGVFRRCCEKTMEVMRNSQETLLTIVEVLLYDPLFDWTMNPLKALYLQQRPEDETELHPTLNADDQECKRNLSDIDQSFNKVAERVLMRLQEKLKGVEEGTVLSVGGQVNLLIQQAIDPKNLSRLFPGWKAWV

| Structure (SMILES) | IC50 (ATM kinase) [nM] | IC50 [1] [nM] | IC50 ([2]; Homo sapiens, SW-620, 120 h) [nM] | inhibition at 0.0001 µM (ATM kinase) [%] | inhibition at 0.001 µM (ATM kinase) [%] | inhibition at 0.01 µM (ATM kinase) [%] | IC50 [2] [nM] |
| --- | --- | --- | --- | --- | --- | --- | --- |
| Cc1nc(N2C[C@@H](C)O[C@@H](C)C2)n2c1cnc1ccc(-c3ccc(OCCCN4CCC4)nc3)cc12 [Example 31, (2S,6R)-4-(8-(6-(3-(azetidin-1-yl)propoxy)pyridin-3-yl)-3-methylimidazo[1,5-a]quinoxalin-1-yl)-2,6-dimethylmorpholine] | 0.62 | 9.2 | 10.1 | – | – | – | – |
| Cc1nc(C(C)C)n2c1cnc1ccc(-c3ccc(OCCCN(C)C)c(F)c3)cc12 [Example 20, N,N-dimethyl-3-(2-fluoro-4-(1-isopropyl-3-methylimidazo[1,5-a]quinoxalin-8-yl)phenoxy)propan-1-amine] | – | 21.3 | – | – | 82 | – | 35.9 |
| Cc1nc(N2C[C@@H](C)O[C@@H](C)C2)n2c1cnc1ccc(-c3ccc(N4CCC(N)CC4)nc3)cc12 [Example 48, 1-(5-(1-((2S,6R)-2,6-dimethylmorpholino)-3-methylimidazo[1,5-a]quinoxalin-8-yl)pyridin-2-yl)piperidin-4-amine] | 0.46 | 7.6 | 12.1 | – | – | – | – |
| Cc1nc(C2CCOCC2)n2c1cnc1ccc(-c3ccc(OCCCN(C)C)c(C(F)(F)F)c3)cc12 [Example 5, N,N-dimethyl-3-(4-(3-methyl-1-(tetrahydro-2H-pyran-4-yl)imidazo[1,5-a]quinoxalin-8-yl)-2-(trifluoromethyl)phenoxy)propan-1-amine] | – | 21.9 | – | 47 | 97 | 99 | 19.5 |
| Cc1nc(C2CCOCC2)n2c1cnc1ccc(-c3ccc(N4CCC(N(C)C)CC4)c(C(F)(F)F)c3)cc12 [Example 8] | – | 24.8 | – | 27 | 94 | 99 | 24.1 |
| Cc1nc(N2C[C@@H](C)O[C@@H](C)C2)n2c1cnc1ccc(-c3ccc(OCCCN(C)C)c(Cl)c3)cc12 [Example 62, 3-(2-chloro-4-(1-((2S,6R)-2,6-dimethylmorpholino)-3-methylimidazo[1,5-a]quinoxalin-8-yl)phenoxy)-N,N-dimethylpropan-1-amine] | – | 34 | – | – | – | – | 43 |
| Cc1nc(N2C[C@@H](C)O[C@@H](C)C2)n2c1cnc1ccc(-c3ccc(OCCCN(C)C)c(F)c3)cc12 [Example 61, 3-(4-(1-((2S,6R)-2,6-dimethylmorpholino)-3-methylimidazo[1,5-a]quinoxalin-8-yl)-2-fluorophenoxy)-N,N-dimethylpropan-1-amine] | – | 20.8 | – | – | – | – | 21.7 |
| Cc1nc(N2C[C@@H](C)O[C@@H](C)C2)n2c1cnc1ccc(-c3ccc(N4CCC(N5CCC5)CC4)nc3)cc12 [Example 52, (2S,6R)-4-(8-(6-(4-(azetidin-1-yl)piperidin-1-yl)pyridin-3-yl)-3-methylimidazo[1,5-a]quinoxalin-1-yl)-2,6-dimethylmorpholine] | – | 6.1 | – | – | – | – | 5.5 |
| CC(C)c1nc(N2C[C@@H](C)O[C@@H](C)C2)n2c1cnc1ccc(-c3ccc(OCCCN(C)C)nc3)cc12 [Example 42, 3-((5-(1-((2S,6R)-2,6-dimethylmorpholino)-3-isopropylimidazo[1,5-a]quinoxalin-8-yl)pyridin-2-yl)oxy)-N,N-dimethylpropan-1-amine] | – | 533 | – | – | – | – | 852 |

Continued by falling IC50 [1], values first:

| IC50 (ATM kinase) [nM] | IC50 [1] [nM] | IC50 ([2]; Homo sapiens, SW-620, 120 h) [nM] | inhibition at 0.0001 µM (ATM kinase) [%] | inhibition at 0.001 µM (ATM kinase) [%] | inhibition at 0.01 µM (ATM kinase) [%] | IC50 [2] [nM] | Structure (SMILES) |
| --- | --- | --- | --- | --- | --- | --- | --- |
| – | 832 | – | – | – | – | > 1000 | Cc1nc(N2C[C@@H](C)O[C@@H](C)C2)n2c1cnc1ccc(-c3ccc(CCN4CCN(C)CC4)nc3)cc12 [Example 60, (2S,6R)-2,6-dimethyl-4-(3-methyl-8-(6-(2-(4-methylpiperazin-1-yl)ethyl)pyridin-3-yl)imidazo[1,5-a]quinoxalin-1-yl)morpholine] |
| – | 419 | – | – | – | – | 564 | Cc1nc(N2C[C@@H](C)O[C@@H](C)C2)n2c1cnc1ccc(-c3ccc(OCCc4c[nH]cn4)nc3)cc12 [Example 35, (2S,6R)-4-(8-(6-(2-(1H-imidazol-4-yl)ethoxy)pyridin-3-yl)-3-methylimidazo[1,5-a]quinoxalin-1-yl)-2,6-dimethylmorpholine] |
| – | 126 | – | – | – | – | 17.9 | Cc1nc(N2C[C@@H](C)O[C@@H](C)C2)n2c1cnc1ccc(-c3ccc(N(C)CCCN(C)C)nc3)cc12 [Example 47, N^1-(5-(1-((2S,6R)-2,6-dimethylmorpholino)-3-methylimidazo[1,5-a]quinoxalin-8-yl)pyridin-2-yl)-N^1,N^3,N^3-trimethylpropane-1,3-diamine] |
| – | 26 | – | – | – | 93 | 39.7 | Cc1nc(N2CCOCC2)n2c1cnc1ccc(-c3ccc(OCCCN(C)C)nc3)cc12 [Example 14, N,N-dimethyl-3-((5-(3-methyl-1-morpholinylimidazo[1,5-a]quinoxalin-8-yl)pyridin-2-yl)oxy)propan-1-amine] |
| – | 18.8 | – | – | – | – | 20.9 | C[C@@H]1CN(c2ncc3cnc4ccc(-c5ccc(N6CCC(N(C)C)CC6)nc5)cc4n23)C[C@H](C)O1 [Example 45, 1-(5-(1-((2S,6R)-2,6-dimethylmorpholino)imidazo[1,5-a]quinoxalin-8-yl)pyridin-2-yl)-N,N-dimethylpiperidin-4-amine] |
| – | 16.4 | – | – | 67 | – | 29.6 | Cc1nc(C(C)C)n2c1cnc1ccc(-c3ccc(OCCCN(C)C)c(C(F)(F)F)c3)cc12 [Example 21, N,N-dimethyl-3-(4-(1-isopropyl-3-methylimidazo[1,5-a]quinoxalin-8-yl)-2-(trifluoromethyl)phenoxy)propan-1-amine] |
| – | 10.6 | – | 71 | 89 | 97 | 8.2 | Cc1nc(N2CCCCC2)n2c1cnc1ccc(-c3ccc(OCCCN(C)C)nc3)cc12 [Example 16, N,N-dimethyl-3-((5-(3-methyl-1-(piperidin-1-yl)imidazo[1,5-a]quinoxalin-8-yl)pyridin-2-yl)oxy)propan-1-amine] |
